According to paper PMC10866072, “Design, synthesis, molecular modelling and biological evaluation of novel 6-amino-5-cyano-2-thiopyrimidine derivatives as potent anticancer agents against leukemia and apoptotic inducers” (Journal of Enzyme Inhibition and Medicinal Chemistry, 2024):
Read-outs that look alike come from different tables or passages of the source.

What was measured:
CCRF-CEM = format: cell-based
SR = format: cell-based
HCT-116 = format: cell-based
TK-10 = format: cell-based
HL60 cells = assay: Annexin V-FITC/PI apoptosis and necrosis assay; format: cell-based, human; conditions: HL60, 48 h treatment
Description: (§1) For more assessment of compound 1c, apoptosis assay was performed using annexin V-FITC Apoptosis detection kit (Biovision, cat#: K101-25) followed by flow cytometric analysis[92]^,[93]. Briefly, HL60 and leukaemia SR cells were cultured under optimum conditions followed by compound I c treatment for 48 h. then, washed in PBS, centrifuged, and resuspended in 500 µl of 1 x binding buffer. Moreover, 5 µl of annexin V-FITC, and 5 µl of propidium iodide were added and incubated in dark for 5 min. Finally, apoptotic cells were detected using flow cytometer as well as PI staining by emission signal detector. FACS Calibur flow cytometer (Becton Dickinson Biosciences) was used to analyse the cells’ apoptosis.

leukaemia SR cells = assay: Annexin V-FITC/PI apoptosis and necrosis assay; format: cell-based, human; conditions: 48 h treatment
Description: as §1

[1] = test system: full NCI 60 cell lines panel
[2] = Homo sapiens, one dose 10^-5 M, 48 h
[3] = Homo sapiens, five-dose, read-out: LC50 (the source's name)

Structure (SMILES): N#Cc1c(N)nc(S)nc1-c1ccc(Cl)cc1Cl [Compound 1c, 4-Amino-6–(2,4-dichlorophenyl)-2-mercaptopyrimidine-5-carbonitrile]
- GI50 (CCRF-CEM; Homo sapiens, five-dose): 0.3 µM
- LC50 (concentration killing 50% of tumour cells) (CCRF-CEM; Homo sapiens, five-dose): > 100 µM
- % cell growth at 10 µM (CCRF-CEM; [2]): 7.65%
- TGI (CCRF-CEM; five-dose): 16.10 µM
- GI50 (SR; Homo sapiens, five-dose): 0.14 µM
- CC50 (SR; [3]): > 100 µM
- percent cell growth at 10 µM (SR; [2]): 2.54%
- TGI (SR; five-dose): 23.70 µM
- GI50 (HCT-116; Homo sapiens, five-dose): 0.06 µM
- CC50 (HCT-116; [3]): 63.6 µM
- activity at 10 µM (HCT-116; Homo sapiens, one dose 10^-5 M, 48 h, read-out: % growth): -18.8%
- TGI (HCT-116; five-dose): 17.90 µM
- % growth (HCT-116; one dose 10^-5 M, 48 h): -18.77%
- GI50 (TK-10; Homo sapiens, five-dose): 21.5 µM
- LC50 (50% lethal concentration) (TK-10; Homo sapiens, five-dose): > 100 µM
- % cell growth at 10 µM (TK-10; [2]): 114%
- TGI (TK-10; five-dose): 50.20 µM
- early apoptosis (HL60 cells): 23.79%
- late apoptosis (HL60 cells): 9.89%
- necrosis percentage (HL60 cells): 3.41%
- early apoptosis (leukaemia SR cells): 14.97%
- late apoptosis (leukaemia SR cells): 23.02%
- necrosis percentage (leukaemia SR cells): 4.72%
- activity at 10 µM ([1]; Homo sapiens, 60 cell, 48 h, read-out: Mean % growth): 53.3%
- CC50 ([1]; Homo sapiens, 60 cell, read-out: LC50 values (MG-MID)): 77.6 µM
- GI50 ([1]; Homo sapiens, 60 cell, read-out: MID^a, average sensitivity of all cell lines (GI50)): 12.9 µM
- GI50 ([1]; Homo sapiens, 60 cell, read-out: full panel GI50 (MG-MID)): 6.76 µM
- log10 GI50, range over all 60 cell lines ([1]; five-dose): −4.50 to −7.25
- % growth values, cell lines with lethal effect ([1]; one dose, range over those cell lines): −18.77 to −49.21%
